In patent US11160489B2, “Wireless optofluidic systems for programmable in vivo pharmacology and optogenetics” (THE BOARD OF TRUSTEES OF THE UNIVERSITY OF ILLINOIS, priority 2015, dated 2021):
“Also recorded” adds a separate entry of the source.

Molecular target: T1, μ-opioid receptor (MOPR) (Mus musculus, UniProt P42866)
T1 construct: from tissue; host or cells: ventral tegmental area of living wild-type C57Bl6 mice (in vivo)
Assay: Contraversive rotation/locomotor testing assay after wireless intra-VTA infusion
Type: in vivo
Settings: 200 pmol, wireless unilateral intra-VTA infusion, within-subject vs ACSF vehicle, wild-type mice, n=7
Excerpt: As a proof-of-principle within-subject in vivo pharmacology experiment, two chambers of each device were loaded with different pharmacological agents; one with the synthetic opioid peptide and MOPR agonist, [D-Ala^2, N-MePhe^4, Gly-ol]-enkephalin (DAMGO, 200 pmol, Tocris), and one with artificial cerebral spinal fluid (ACSF) as a vehicle control. In a counter-balanced design, either the DAMGO or vehicle was wirelessly delivered into the VTA of freely behaving animals over a distance of ˜1 m away from the animal (FIGS. 88, A and B).
After the mice were acclimatized to the holding facility for seven to nine days, they were anaesthetized in an induction chamber (4% Isolflurane) and placed in a stereotaxic frame (Kopf Instruments, Model 1900) where they were maintained at 1-2% isoflurane. […] For the DAMGO-induced rotation experiment, mice were implanted with the microfluidic device above the VTA (stereotaxic coordinates from bregma (mm): AP:-3.10, ML: +/−0.50, DV: −4.25). […] A standard electrode holder (KOPF 1770) was adapted to implant the microfluidic and optofluidic devices. […] The implants were secured using two bone screws (CMA, 743102) and affixed with dental cement (Lang Dental). C571Bl6 mice were allowed to recover for 5 days prior to behavioral testing.
C571Bl6 mice with microfluidic devices implanted above the VTA were placed in the center of the same arena used for the OFT and allowed to roam freely for 1 hr. Wireless infusion of vehicle or DAMGO was initiated and movements were video recorded and analyzed using Ethovision. Rotations were defined as full 360° revolutions in the path of movement.

T1 sequence (P42866 whole entry): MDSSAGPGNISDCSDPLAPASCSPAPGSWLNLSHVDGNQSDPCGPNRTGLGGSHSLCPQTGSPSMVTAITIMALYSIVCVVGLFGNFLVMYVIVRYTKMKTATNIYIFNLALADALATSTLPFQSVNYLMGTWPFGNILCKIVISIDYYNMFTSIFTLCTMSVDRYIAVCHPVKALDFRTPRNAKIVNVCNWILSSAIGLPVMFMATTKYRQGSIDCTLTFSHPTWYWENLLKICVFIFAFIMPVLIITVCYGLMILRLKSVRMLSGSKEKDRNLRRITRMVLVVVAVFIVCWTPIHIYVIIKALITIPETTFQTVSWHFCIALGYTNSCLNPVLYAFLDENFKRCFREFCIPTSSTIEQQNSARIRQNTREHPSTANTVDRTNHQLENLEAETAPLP

## C[C@@H](NC(=O)[C@@H](N)Cc1ccc(O)cc1)C(=O)NCC(=O)N(C)[C@@H](Cc1ccccc1)C(=O)NCCO [DAMGO, [D-Ala^2, N-MePhe^4, Gly-ol]-enkephalin]
  contraversive 360° rotations: significant increase; also recorded: stereotypical rotations contralateral to injection site
  overall locomotor activity: significant increase; also recorded: robust increase in overall locomotor activity
